Experimental data taken from US20240148821A1, “PHARMACEUTICAL USE OF CYCLIC PEPTIDE COMPOUND” (CHUGAI SEIYAKU KABUSHIKI KAISHA, priority 2021, published 2024).
Numbered stars: 1 amine (or outer) side, 2 acyl side, 3 side chain; on linkers, the order of the positions; unused ones are H or OH. Bridge positions count the residues as written; N and C are the ends. Square brackets hold non-standard residues; d marks the D form. Peptide text beside a SMILES is read from it. * marks the point of attachment. hPhe(3,5-F2-4-CF3) = N[C@@H](CCc1cc(F)c(C(F)(F)F)c(F)c1)C(=O)O; hPhe(3-Cl-4-CF3) = N[C@@H](CCc1ccc(C(F)(F)F)c(Cl)c1)C(=O)O; NEtPhe(4-CF3) = CCN[C@@H](Cc1ccc(C(F)(F)F)cc1)C(=O)O; NMePhe(4-CF3) = CN[C@@H](Cc1ccc(C(F)(F)F)cc1)C(=O)O; NMeAbu(4,4,4-F3) = CN[C@@H](CC(F)(F)F)C(=O)O; NMePhe(4-Me) = CN[C@@H](Cc1ccc(C)cc1)C(=O)O; NMedβ3hAla = C[C@H](CC(=O)[*:2])N(C)[*:1]; NMeAla(cPent) = CN[C@@H](CC1CCCC1)C(=O)O; NMeGly(cPent) = CN[C@H](C(=O)O)C1CCCC1; NMeCha = CN[C@@H](CC1CCCCC1)C(=O)O; Hyp = O=C(O)[C@@H]1C[C@@H](O)CN1; NEtLeu = CCN[C@@H](CC(C)C)C(=O)O; NMeChg = CN[C@H](C(=O)O)C1CCCCC1; NMeI = CC[C@H](C)[C@H](NC)C(=O)O; NMeD = CN[C@@H](CC(=O)O)C(=O)O; NMeL = CN[C@@H](CC(C)C)C(=O)O; NMeNva = CCC[C@H](NC)C(=O)O; Morpholide = C1CN(*)CCO1; NMeA = CN[C@@H](C)C(=O)O; NMeAib = CNC(C)(C)C(=O)O; Pyrrolidide = C1CCN(*)C1; Ac5c = NC1(C(=O)O)CCCC1; Aze = O=C(O)[C@@H]1CCN1; Ac4c = NC1(C(=O)O)CCC1; Sar = CNCC(=O)O

What was measured:
[1] = test system: Human pancreatic cancer cell line AsPC-1 (G12D mutation Kras); assay: AsPC-1 cell growth inhibition (AsPC-1 CGI); format: cell-based; conditions: read-out: AsPC-1 cell growth inhibition, 50% growth inhibitory concentration (IC50 value); 96 hours, CellTiter-Glo, values classified in ranges
Protocol: Test compounds were serially dilated with dimethyl sulfoxide, and 200 nL was then dispensed to a U-bottom 96-well plate using Labcyte Echo. […] The cell suspension was dispensed to a. plate containing a test compound at 100 μL per well and incubated at 37° C. in a 5% carbon dioxide gas incubator. 96 hours later, 80 μL of CellTiter-Glo (Promega) was added to each well and fluorescence was measured.

[2] = biological target: protein-protein interaction between Kras and SOS1 (biotin-tagged human Kras loaded with GDP, His-tagged human SOS1) (Homo sapiens (Human), UniProt P01116, G12D); assay: Protein-protein interaction inhibition between Kras and SOS1 (KrasG12D-SOS PPI) using AlphaScreen; format: biochemical; conditions: AlphaScreen; biotin-tagged human Kras loaded with GDP, His-tagged human SOS1; read-out: KRAS G12D-SOS PPI IC50;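 also: kras produced in E. coli, Ni-coupled donor beads and streptavidin acceptor beads, excitation 680 nm with emission detected at 520–620 nm via singlet oxygen transfer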

CC[C@H](C)[C@@H]1NC(=O)[C@H](CC(C)C)N(C)C(=O)C[C@@H](C(=O)N2CCOCC2)N(C)C(=O)[C@H]([C@@H](C)CC)N(C)C(=O)C2(CCCC2)NC(=O)[C@@H]2CCCN2C(=O)[C@H](CCc2cc(F)c(C(F)(F)F)c(F)c2)NC(=O)CN(C)C(=O)[C@H](Cc2ccc(C(F)(F)F)cc2)N(CC)C(=O)[C@@H]2CCN2C(=O)[C@H](C)N(C)C1=O [Compound 1364] ([NMeL]I[NMeA][Aze][NEtPhe(4-CF3)][Sar][hPhe(3,5-F2-4-CF3)]P[Ac5c][NMeI][NMeD]-Morpholide; lactam N-11)
IC50 [1]: ≤ 20 nM | IC50 [2]: 1.2 nM

CC[C@H](C)[C@@H]1NC(=O)[C@H](CC(C)C)N(CC)C(=O)C[C@@H](C(=O)N(C)C)N(C)C(=O)[C@H]([C@@H](C)CC)N(C)C(=O)C2(CCCC2)NC(=O)[C@@H]2CCCN2C(=O)[C@H](CCc2ccc(C(F)(F)F)c(Cl)c2)NC(=O)CN(C)C(=O)[C@H](Cc2ccc(C)cc2)N(C)C(=O)[C@@H]2CCN2C(=O)[C@H](C)N(C)C1=O [Compound 1365] ([NEtLeu]I[NMeA][Aze][NMePhe(4-Me)][Sar][hPhe(3-Cl-4-CF3)]P[Ac5c][NMeI][NMeD]-NMe2; lactam N-11)
IC50 [1]: ≤ 20 nM | IC50 [2]: 1.2 nM

CCO[C@@H]1C[C@H]2C(=O)NC3(CCC3)C(=O)N(C)[C@@H](C3CCCCC3)C(=O)N(C)[C@H](C(=O)N3CCCC3)CC(=O)N(C)[C@@H](CC(C)C)C(=O)N[C@@H]([C@@H](C)CC)C(=O)N(C)CC(=O)N(C)CC(=O)N(C)[C@@H](CC3CCCCC3)C(=O)N(C)CC(=O)N[C@@H](CCc3cc(F)c(C(F)(F)F)c(F)c3)C(=O)N2C1 [Compound 1366] ([NMeL]I[Sar][Sar][NMeCha][Sar][hPhe(3,5-F2-4-CF3)][Hyp](Et)[Ac4c][NMeChg][NMeD]-Pyrrolidide; lactam N-11)
IC50 [1]: ≤ 20 nM | IC50 [2]: 0.63 nM

CCC[C@H]1C(=O)N[C@@H]([C@@H](C)CC)C(=O)N(C)CC(=O)N(C)CC(=O)N(C)[C@@H](CC2CCCCC2)C(=O)N(C)CC(=O)N[C@@H](CCc2cc(F)c(C(F)(F)F)c(F)c2)C(=O)N2C[C@H](OCC)C[C@H]2C(=O)NC2(CCCC2)C(=O)N(C)[C@@H](C2CCCCC2)C(=O)N(C)[C@H](C(=O)N2CCCC2)CC(=O)N1C [Compound 1367] ([NMeNva]I[Sar][Sar][NMeCha][Sar][hPhe(3,5-F2-4-CF3)][Hyp](Et)[Ac5c][NMeChg][NMeD]-Pyrrolidide; lactam N-11)
IC50 [1]: ≤ 20 nM | IC50 [2]: 0.65 nM

CCO[C@@H]1C[C@H]2C(=O)NC3(CCCC3)C(=O)N(C)[C@@H](C3CCCCC3)C(=O)N(C)[C@H](C(=O)N3CCCC3)CC(=O)N(C)[C@@H](CC(F)(F)F)C(=O)N[C@@H]([C@@H](C)CC)C(=O)N(C)CC(=O)N(C)CC(=O)N(C)[C@@H](CC3CCCCC3)C(=O)N(C)CC(=O)N[C@@H](CCc3ccc(C(F)(F)F)c(Cl)c3)C(=O)N2C1 [Compound 1369] ([NMeAbu(4,4,4-F3)]I[Sar][Sar][NMeCha][Sar][hPhe(3-Cl-4-CF3)][Hyp](Et)[Ac5c][NMeChg][NMeD]-Pyrrolidide; lactam N-11)
IC50 [1]: ≤ 20 nM | IC50 [2]: 0.55 nM

CCO[C@@H]1C[C@H]2C(=O)NC3(CCCC3)C(=O)N(C)[C@@H](C3CCCC3)C(=O)N(C)[C@H](C(=O)N3CCCC3)CC(=O)N(C)[C@@H](CC(C)C)C(=O)N[C@@H]([C@@H](C)CC)C(=O)N(C)CC(=O)N(C)CC(=O)N(C)[C@@H](CC3CCCCC3)C(=O)N(C)CC(=O)N[C@@H](CCc3ccc(C(F)(F)F)c(Cl)c3)C(=O)N2C1 [Compound 1370] ([NMeL]I[Sar][Sar][NMeCha][Sar][hPhe(3-Cl-4-CF3)][Hyp](Et)[Ac5c][NMeGly(cPent)][NMeD]-Pyrrolidide; lactam N-11)
IC50 [1]: ≤ 20 nM | IC50 [2]: 0.6 nM

CC[C@H](C)[C@@H]1NC(=O)[C@H](CC2CCCC2)N(C)C(=O)C[C@@H](C(=O)N2CCOCC2)N(C)C(=O)[C@H]([C@@H](C)CC)N(C)C(=O)C2(CCCC2)NC(=O)[C@@H]2CCCN2C(=O)[C@H](CCc2ccc(C(F)(F)F)c(Cl)c2)NC(=O)CN(C)C(=O)[C@H](Cc2ccc(C(F)(F)F)cc2)N(C)C(=O)[C@@H]2CCN2C(=O)[C@H](C)NC1=O [Compound 1371] ([NMeAla(cPent)]IA[Aze][NMePhe(4-CF3)][Sar][hPhe(3-Cl-4-CF3)]P[Ac5c][NMeI][NMeD]-Morpholide; lactam N-11)
IC50 [1]: ≤ 20 nM | IC50 [2]: 1.6 nM

CC[C@H](C)[C@@H]1NC(=O)[C@H](C)N(C)C(=O)C[C@@H](C)N(C)C(=O)[C@H](CC(C)C)NC(=O)C(C)(C)N(C)C(=O)[C@H](CC(C)C)NC(=O)[C@H](CCc2ccc(C(F)(F)F)c(Cl)c2)NC(=O)CN(C)C(=O)[C@H](CC2CCCCC2)N(C)C(=O)CN(C)C(=O)CN(C)C1=O [Compound 1380] (cyclo(I[Sar][Sar][NMeCha][Sar][hPhe(3-Cl-4-CF3)]L[NMeAib]L[NMedβ3hAla][NMeA]))
IC50 [1]: > 500 nM | IC50 [2]: 16 nM
